# Data reported in US20230096103A1, “BERBERINE COMPOUNDS, BERBERINE COMPOSITIONS, AND METHODS FOR ADMINISTRATION THEREOF” (Dignity Health, priority 2020, published 2023).
# pIC50: −log10 of the molar value.
# What was measured:
# [1] = molecular target: T1, human α4β2-nAChR (Homo sapiens, UniProt P17787+P43681); assay: Whole-cell patch-clamp of human α4β2-nAChR-mediated currents in transfected SH-EP1 cells; format: cell-based; details: for ACh-induced currents, peak current component / ACh-induced currents, steady-state component: 30 μM co-applied with 1 mM ACh; for 1 mM ACh-induced whole-cell currents: 1 min pretreatment
# T1 construct: expressed in transfected cells; host or cells: human SH-EP1 cell line
# Protocol: The effects of THPBs on α4β2-nAChR function were evaluated in vitro. Specifically, whole-cell patch-clamp recording technique was employed in α4β2-nAChRs transfected with a human SH-EP1 cell-line. FIG. 1A provides graphs illustrating the effects of a 1 min pre-treatment of 30 μM /-THP, d/-THB or /-SPD on 1 mM ACh-induced current in SH-EP1 cell line.
# Thus, when THPBs are co-applied with an agonist, it affects receptor function after agonist opens channels.
# (§1) The effects of THB-induced inhibition on the α4β2-nAChR function were evaluating using human α4β2-nAChRs (transfected to SH-EP1 cells) and rat α4β2-nAChRs natively expressed in VTA DA neurons. The 30 μM THB (without pretreatment) inhibited both types (human and rat) of α4β2-nAChR function, and compared to peak current, the steady-state current portion was more sensitive to THB (FIGS. 3A-3C).
# The effect of different concentrations of THB on 1 mM ACh-induced whole-cell currents were further examined in human α4β2-nAChRs in SH-EP1 cells. […] The steady-state current was more sensitive to THB than the peak current.
# FIG. 9A provides a graph of traces of co-application of THB6 on ACh-induced current. FIG. 9B provides a graph of traces of the effect of 1 min pretreatment of THB6 on ACh-induced current. […] Each bar of the bar graph presented in FIG. 9C represents the mean from 4 cells and vertical bars indicate +Se. A ^“*” was given to indicate p<0.05, while a ^“***” was given to indicate p<0.001 in FIG. 9C. Data was analyzed with One-Way ANOVA.
# A dosage containing 100 μM THB6 compound was evaluated on human and mouse α4β2-nAChR-mediated currents. FIG. 10A provides a graph of traces of ACh-induced whole-cell currents in human α4β2-nAChRs transfected in human SH-EP1 cells. FIG. 10B provides a graph of traces of ACh-induced whole-cell currents in mouse α4β2-nAChRs transfected in VTA dopamine neurons. […] Each bar in the bar graph of FIG. 10C represents the mean from 4 cells and vertical bars indicate +SE. A ^“*” was given to indicate p<0.05. A ^“***” was given to indicate p<0.001 in FIG. 9C. Data was analyzed with One-Way ANOVA.
# [2] = system: mice; assay: Mouse locomotor activity after systemic injection; format: in vivo
# Source text: Systemic injection of dosages containing THB6 to mice and the mice's locomotive activity was studied.
# [3] = system: VTA DA neurons; assay: Extracellular single unit recording of VTA DA neuron firing in anesthetized mice; format: in vivo, mouse
# Protocol: The effect of systemic injection of THB6 on mouse VTA DA neuron firing was evaluated by applying 10 mg/kg via an IV to anesthetized mice and extracellular single unit recordings were performed. FIG. 12A provides an image of the VTA slice, showing the recording electrode track and recording site after the experiment. The location of the recording electrode track is depicted in FIG. 12B.
# [4] = molecular target: T2, mouse α4β2-nAChRs (Mus musculus, UniProt O70174+Q9ERK7); assay: ACh-induced whole-cell currents of mouse α4β2-nAChRs in VTA dopamine neurons; format: cell-based; details: 100 μM
# T2 construct: expressed in transfected cells; host or cells: VTA dopamine neurons
# Protocol: A dosage containing 100 μM THB6 compound was evaluated on human and mouse α4β2-nAChR-mediated currents. FIG. 10A provides a graph of traces of ACh-induced whole-cell currents in human α4β2-nAChRs transfected in human SH-EP1 cells. FIG. 10B provides a graph of traces of ACh-induced whole-cell currents in mouse α4β2-nAChRs transfected in VTA dopamine neurons. […] FIGS. 10C and 10D provide bar graphs showing the statistic result that THB6 inhibits both peak and steady-state compounds of ACh-induced currents. Each bar in the bar graph of FIG. 10C represents the mean from 4 cells and vertical bars indicate +SE. A ^“*” was given to indicate p<0.05. A ^“***” was given to indicate p<0.001 in FIG. 9C. Data was analyzed with One-Way ANOVA.
# [5] = system: VTA DA neurons; assay: Action potential firing in mouse VTA slices, cell-attached patch recording; format: cell-based
# Protocol: Based on the evaluation of a dosage containing THB6 compounds on VTA slices, it was determined that THB6 prevents nicotine-induced firing rate increase in VTA DA neurons. […] FIG. 11B is a bar graph showing the statistical result of the normalized firing rate of THB6 compounds.
# [6] = molecular target: T1, human α4β2-nAChR; assay: 3H-epibatidine (H-EBDN) binding and binding competition on heterologously expressed α4β2-nAChR; details: FIG. 2A
# [7] = molecular target: T1, human α4β2-nAChR; assay: 86Rb+ efflux assay, carbachol-induced response, heterologously expressed α4β2-nAChR; format: cell-based
# [8] = system: VTA DA neurons; assay: Miniature EPSCs in VTA DA neuron, patch-clamp whole-cell recording in VTA slice; format: cell-based
# Protocol: Thus, the effect of /-THP on this nicotine-induced EPSC enhancement was studied. […] Co-application of 10 μM /-THP abolished nicotine-induced enhancement of mEPSCs (see, FIGS. 5A and 5C).
# [9] = system: male C57BL/6 mice; assay: Nicotine-induced conditioned place preference (CPP); format: in vivo, mouse
# Protocol: A conventional biased CPP was performed on male C57BL/6 mice. Mice were put into two-compartment CPP apparatus (Med Associate Inc. VT) for accommodation once (20 min) a day for 3 days and for monitoring the preference to any specific side of compartment. Mice were divided into 3 groups (5 mice per group) and received 2 training sessions per day for 4 days.
# When the mouse received a saline injection, it was placed into the opposite side for 20 min. […] Alternatively, the mice of the second group received saline injection and placed into the opposite side. The third group of mice (the I-THP only group) received /-THP i.p. injection (10 mg/Kg) and were placed into the least preferred side for 20 min. Alternatively, the mice received a saline injection and were placed into the opposite side.
# On the 5th day, mice were tested for place preference by allowing free access to both conditioning compartments for 20 minutes. The foregoing 4-day training session was repeated on the 6th day. Mice of group 1 received their treatments without change. […] Alternatively, the mice of group 2 received a saline injection and then received a saline injection 5 min later. After the saline injection, the mice of group 2 were placed into the opposite chamber for 4 days. On the 10th day, the mice were tested for place preference for 20 min (See, FIG. 8).
# [10] = system: VTA DA neurons; assay: In vivo VTA DA neuronal firing in anesthetized rats; design: species or system rat
# Protocol: It was tested whether systemic injection of THB affected VTA DA neuron firing. As shown in FIGS. 6A-6C, injection of THB (1 mg/kg, i.v.) increased VTA DA neuron firing rate, bursting fraction (FIG. 6A), and slow oscillations (FIGS. 6B-6D). […] THB appears to eliminate nicotinic effect via its blockade of nAChRs. Therefore, the actions of THB are consistent with the double target hypothesis that THB blocks nAChRs (especially α4β2-nAChRs) and enhances DA release from VTA to DA neuronal targets.
# [11] = molecular target: T3, rat α4β2-nAChRs (Rattus norvegicus, UniProt P09483+P12390); assay: Whole-cell currents of rat α4β2-nAChRs natively expressed in VTA DA neurons; format: cell-based; details: 30 μM, without pretreatment
# T3 construct: rat α4β2-nAChRs natively expressed in VTA DA neurons; endogenous in cells; host or cells: rat VTA dopamine neurons
# Protocol: as §1
# [12] = 1 mg/kg, i.v., anesthetized rats
compound,measurement,setting,value
COc1ccc2c(c1OC)CN1CCc3cc4oc(=O)oc4cc3C1C2 (centres unmarked) [THB6],peak component of ACh-induced currents,"[1]; 30 μM, with and without 1 min pretreatment, FIG. 9C",inhibiting
same,"peak and steady-state components of ACh-induced currents, human α4β2-nAChRs","[1]; 100 μM, SH-EP1 cells",inhibits
same,nicotine-induced increase of locomotor activity,[2]; pretreatment,prevented
same,"locomotor activity, compound alone",[2]; systemic injection,did not alter
same,"neuronal firing rate, compound alone","[3]; 10 mg/kg IV, anesthetized mice",did not affect
same,nicotine-induced increase of firing rate,"[3]; 10 mg/kg IV, anesthetized mice",prevented
same,"peak and steady-state components of ACh-induced currents, mouse α4β2-nAChRs",[4],inhibits
same,"DA neuronal firing, compound alone",[5],did not affect
same,nicotine-induced firing increase,[5],prevented
/-stepholidine [/-SPD],"ACh-induced currents, peak current component",[1]; SH-EP1 cells,only mildly reduced
same,"ACh-induced currents, steady-state component",[1]; SH-EP1 cells,suppressed
same,1 mM ACh-induced whole-cell currents,"[1]; 30 μM, SH-EP1 cells",dramatically eliminated
same,affinity in H-EBDN binding competition,[6],lower affinity
same,pIC50,"[7]; FIG. 2B, read-out: IC50 value, carbachol-induced 86Rb+ efflux response",4.52
"COc1cc2c(cc1OC)[C@@H]1Cc3ccc(OC)c(OC)c3CN1CC2 [/-THP, /-tetrahydropalmatine]",nicotine-induced enhancement of mEPSCs,[8]; 10 μM co-applied with 1 μM nicotine,abolished
same,"ACh-induced currents, peak current component",[1]; SH-EP1 cells,only mildly reduced
same,"ACh-induced currents, steady-state component",[1]; SH-EP1 cells,suppressed
same,1 mM ACh-induced whole-cell currents,"[1]; 30 μM, SH-EP1 cells",dramatically eliminated
same,pIC50,"[1]; co-application with 1 mM ACh, SH-EP1 cells, n=8, read-out: IC50 value for current net charge",5.28
same,Hill coefficient,"[1]; co-application with 1 mM ACh, current net charge",0.4
same,nicotine rewarding effects after CPP has been established,[9]; 10 mg/Kg i.p. 5 min before nicotine 1.5 mg/Kg,counteracts
CN1CCCC1c1cccnc1 (centres unmarked) [nicotine],mEPSC amplitude,[8]; FIG. 5D,did not affect
same,mEPSC frequency,[8]; bath application of 1 μM,significantly increased
same,neuronal firing rate at 2 minutes after injection,"[3]; systemic injection, back to normal level after 8 minutes",increases
same,conditioned place preference,[9]; 1.5 mg/Kg,induced significant CPP
"COc1ccc2c(c1OC)CN1CCc3cc4c(cc3C1C2)OCO4 (centres unmarked) [THB, tetrahydroberberine]","ACh-induced currents, peak current component",[1]; SH-EP1 cells,only mildly reduced
same,"ACh-induced currents, steady-state component",[1]; SH-EP1 cells,suppressed
same,1 mM ACh-induced whole-cell currents,"[1]; 30 μM, SH-EP1 cells",dramatically eliminated
same,human α4β2-nAChR function (ACh-induced currents),"[1]; 30 μM, without pretreatment",inhibited
same,pIC50,"[1]; IC50 value of Ip (peak current), 1 mM ACh-induced whole-cell currents, SH-EP1 cells",5.66
same,pIC50,"[1]; IC50 value of Is (steady-state current), 1 mM ACh-induced whole-cell currents, SH-EP1 cells",4.43
same,VTA DA neuron bursting fraction,[10]; [12],increased
same,VTA DA neuron firing rate,[10]; [12],increased
same,VTA DA neuron slow oscillations,[10]; [12],increased
same,effect of nicotine on VTA DA firing rate and bursting fraction after THB,[10]; nicotine 0.5 mg/kg i.v. 5 min after THB injection,failed to increase
same,affinity in H-EBDN binding competition,[6],high affinity
same,pIC50,[7],5.15
same,rat α4β2-nAChR function (ACh-induced currents),[11],inhibited
